Laboratory results reported in patent publication US20240381872A1, “SUBSTITUTED 2,3-DIHYDRO[1,3]THIAZOLO[4,5-B]PYRIDINES, SALTS THEREOF AND THEIR USE AS HERBICIDALLY ACTIVE SUBSTANCES” (BAYER AKTIENGESELLSCHAFT, priority 2021, published 2024).

Tested on: Digitaria sanguinalis (DIGSA)
Test: Herbicidal post-emergence action, section E (Table E4)
Format: in vivo
Conditions: application rate 80 g/ha; assessed visually ca. 3 weeks after treatment vs untreated controls; 100% = plants have died off, 0% = as control plants
Description: Seeds of mono- and dicotyledonous weed plants and crop plants were sown, in plastic or organic planting pots, in sandy loam, covered with soil and grown in a greenhouse under controlled growth conditions. 2 to 3 weeks after sowing, the test plants were sprayed in the single-leaf stage. The compounds according to the invention, formulated in form of wettable powders (WP) or as emulsifiable concentrates (EC), were sprayed onto the green plant parts as aqueous suspension or emulsion, with the addition of 0.5% of an additive, at an application rate of 600 l of water/ha (converted). The test plants were placed in the greenhouse for ca. 3 weeks under optimum growth conditions, and then the effect of the preparations was assessed visually in comparison with untreated controls (herbicidal effect in percent (%): 100% effect=plants have died off, 0% effect=as control plants).

Compound: Cc1cc2c(nc1-c1ccccc1F)NCS2 [Example I-007, 5-(2-fluorophenyl)-6-methyl-2,3-dihydro[1,3]thiazolo[4,5-b]pyridine]
- post-emergence activity against DIGSA: 90%
